pIC50: −log10 of the molar value.
Columns and labels:
acetylcholinesterase = assay: Acetylcholinesterase Inhibition Assay (photometric method of Ellman et al.); assay type: biochemical
[1] = test system: Scopolamine Induced Memory Deficit; assay: Dark Avoidance Assay (scopolamine induced memory deficit reversal); assay type: in vivo; conditions: s.c., mice, retest after 24 hours
Protocol: In this assay mice are tested for their ability to remember an unpleasant stimulus for a period of 24 hours. A mouse is placed in a chamber that contains a dark compartment; a strong incadescent light drives it to the dark compartment,where an electric shock is administered through metal plates on the floor. The animal is removed from the testing apparatus and tested again, 24 hours later, for the ability to remember the electric shock.
If scopolamine, an anticholinergic that is known to cause memory impairment, is administered before an animal's initial exposure to the test chamber, the animal re-enters the dark compartment shortly after being placed in the test chamber 24 hours later. This effect of scopolamine is blocked by an active test compound, resulting in a greater interval before re-entry into the dark compartment.
The results for an active compound are expressed as the percent of a group of animals in which the effect of scopolamine is blocked, as manifested by an increased interval between being placed in the test chamber and re-entering the dark compartment.

acetylcholinesterase, sequence (P22303 32-614): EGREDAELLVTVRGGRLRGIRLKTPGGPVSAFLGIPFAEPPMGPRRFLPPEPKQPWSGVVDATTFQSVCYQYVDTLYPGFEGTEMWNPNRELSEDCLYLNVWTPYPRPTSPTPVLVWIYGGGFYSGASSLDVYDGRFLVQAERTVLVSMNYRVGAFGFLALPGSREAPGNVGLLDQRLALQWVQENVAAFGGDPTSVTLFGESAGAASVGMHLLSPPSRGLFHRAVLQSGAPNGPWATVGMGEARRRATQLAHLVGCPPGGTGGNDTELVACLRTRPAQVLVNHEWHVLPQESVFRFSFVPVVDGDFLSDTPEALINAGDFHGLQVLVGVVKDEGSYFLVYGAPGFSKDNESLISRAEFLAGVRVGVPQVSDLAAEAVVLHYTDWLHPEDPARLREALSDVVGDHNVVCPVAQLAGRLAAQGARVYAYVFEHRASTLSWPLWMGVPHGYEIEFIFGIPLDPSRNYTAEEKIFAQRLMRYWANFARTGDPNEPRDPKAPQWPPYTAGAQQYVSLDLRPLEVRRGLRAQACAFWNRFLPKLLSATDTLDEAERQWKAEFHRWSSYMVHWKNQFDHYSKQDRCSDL

C(=Nc1c2c(nc3ccccc13)CCCC2)c1ccccc1 [N-Phenylmethylene-1,2,3,4-tetrahydro-9-acridinamine]
pIC50 (acetylcholinesterase): 6.64 | % of Animals with Scopolamine Induced Memory Deficit Reversal ([1]; 0.31 mg/kg of body weight): 27% | % of Animals with Scopolamine Induced Memory Deficit Reversal ([1]; 5.0 mg/kg of body weight): 60%

Nc1c2c(nc3ccccc13)CCCC2 [Tacrine, 9-amino-1,2,3,4-tetrahydroacridine, reference compound]
% of Animals with Scopolamine Induced Memory Deficit Reversal ([1]; 0.63 mg/kg of body weight): 13%

Oc1ccccc1C=Nc1c2c(nc3ccccc13)CCCC2 [9-Amino-N-[(2-hydroxyphenyl)methylene]-1,2,3,4-tetrahydroacridine, hemi-fumarate]
pIC50 (acetylcholinesterase): 5.29

CC[C@@H]1C(=O)OC[C@@H]1Cc1cncn1C [Pilocarpine, reference compound]
% of Animals with Scopolamine Induced Memory Deficit Reversal ([1]; 5.0 mg/kg of body weight): 13%

Reference: patent publication US5013741A, “N-[substituted alkylidene]-1,2,3,4-tetrahydro-9-acridinamines useful for enhancing the cholinergic function in a mammal” (priority 1988, dated 1991)
